# Data reported in publication PMC6820371, “Terbium-161 for PSMA-targeted radionuclide therapy of prostate cancer” (European Journal of Nuclear Medicine and Molecular Imaging, 2019).
# Key:
# [1] = test system: PSMA-negative PC-3 flu tumor cells; assay: Cell survival assay (clonogenic assay); assay type: cell-based; conditions: 1 MBq/mL and higher, p > 0.05
# [2] = test system: PC-3 PIP/flu tumor-bearing mice; conditions: ~25 MBq
# Method: In a separate study, SPECT/CT experiments were performed 12–14 days after tumor cell inoculation using a dedicated small-animal SPECT/CT camera (NanoSPECT/CT^TM, Mediso Medical Imaging Systems, Budapest, Hungary) as previously reported (Supplementary material) [34]. ^161Tb-PSMA-617 (~25 MBq/nmol) was diluted in saline for injection. Scans were acquired at 1 h, 4 h, and 24 h after injection of the radioligands (~25 MBq, 1 nmol, 100 μL). During the in-vivo scans, mice were anesthetized using a mixture of Isoflurane and oxygen.
# Methods: Mice were inoculated with PC-3 PIP/flu tumor cells, as described for biodistribution studies, and injected with ^161Tb-PSMA-617 (~25 MBq, 1 nmol per mouse) about 12-14 days later. Under these conditions, the SPECT scans lasted for ~40 min. […] During the in-vivo scans, mice were anesthetized using a mixture of Isoflurane and oxygen.
# SPECT/CT experiments were performed using a dedicated small-animal SPECT/CT camera (NanoSPECT/CT^TM, Mediso Medical Imaging Systems, Budapest, Hungary) as previously reported [4, 10]. The images were acquired using Nucline software (version 1.02, Mediso Ltd., Budapest, Hungary). The real-time CT reconstruction used a cone-beam-filtered backprojection. […] The lower scale of radioactivity was cut by 1% to make tumors and kidneys best visible.
# [3] = test system: mice inoculated with PC-3 PIP cells; assay: Additional therapy study (injection 2 days after tumor cell inoculation); assay type: in vivo; conditions: for Median Survival: control 26 days
# Method: The day of the treatment, two days after tumor cell inoculation, was defined as Day 0 of the study (Table S7).
# Endpoint criteria: The mice were monitored until they reached an endpoint (definition of endpoints, see Chapter 13) or over the whole period of 38 days when the study was terminated.
# Data analysis of the therapy study: The tumor growth delay indices (TGDI2 and TGDI5) were calculated as reported in the Methods of the main manuscript. The median survival was determined using GraphPad Prism software (version 7).
# PC-3 PIP tumor cells = assay: Cell viability assay (MTT assay); assay type: cell-based, human
# Method: The detailed methods of these studies, including dosimetric calculations, are described in the Supplementary material. The results were analyzed for statistical significance by a two-way ANOVA with Sidak’s multiple comparison post-test using Graph Pad Prism (version 7).
# Methods: Tumor cell viability was assessed using a 3-(4,5-dimethylthiazol-2-yl)-2,5-diphenyltetrazolium bromide (MTT) assay as described by Mosmann. PC-3 PIP tumor cells (2500 cells in 200 μL RPMI medium with supplements) were seeded in 96-well plates and incubated overnight (37°C; 5% CO2) to allow adhesion of the tumor cells. The supernatants were removed and the tumor cells were washed once with 200 μL PBS. Afterwards, the tumor cells were incubated in 200 μL RPMI medium (without supplements) containing ^161Tb-PSMA-617 or ^177Lu-PSMA-617 (0.01‒20 MBq/mL), respectively, or just RPMI medium without addition of radioligands. PSMA-negative PC-3 flu tumor cells were also treated with these radioligands under the same experimental conditions using the same concentration range. Additional cell viability assays were performed with PC-3 PIP tumor cells incubated with RPMI medium (without supplements) containing ^161Tb-diethylenetriaminepentaacetic acid (DPTA) or ^177Lu-DTPA (0.01 – 20 MBq/mL). After 4 h incubation (37 °C; 5% CO2), the tumor cells were washed once with 200 μL PBS, followed by the addition of 200 μL of RPMI medium (with supplements) to each well. The tumor cells were left to grow for 6 days under standard cell culture conditions (37 °C, 5% CO2). At Day 6 after treatment, MTT reagent (5 mg/mL in PBS, 30 μL per well) was added to each well to allow the formation of dark-violet formazan crystals within 4 h incubation. The crystals were dissolved by the addition of dimethyl sulfoxide to determine the absorbance at 560 nm using a microplate reader (Victor X3, Perkin Elmer). Cell viability was quantified by expressing the absorbance of the test samples as percentage of the absorbance of control (untreated) cell samples which was set to 100%. Statistical analysis was performed using a two-way ANOVA with Sidak’s multiple comparison post-test in Graph Pad Prism (version 7).
# [4] = test system: PSMA-positive PC-3 PIP tumor cells; assay: Tumor cell uptake and internalization; assay type: cell-based, human; conditions: for Internalized fraction: PC-3 PIP
# [5] = test system: PSMA-negative PC-3 flu tumor cells; assay: Tumor cell uptake and internalization; assay type: cell-based; conditions: 2–4 h incubation
# [6] = Stability of radioligand incubated in saline (radiolytic degradation); assay type: physicochemical
# Method: (§1) The radiolabeling of PSMA-617 (Advanced Biochemical Compounds, ABX GmbH, Radeberg, Germany) with ^161Tb was performed under standard labeling conditions (Supplementary material). […] The n-octanol/PBS distribution coefficient (logD) was determined for ^161Tb-PSMA-617 (Supplementary material). All of these experiments were performed as previously reported for ^177Lu-PSMA-617 [27].
# [7] = n-octanol/PBS distribution coefficient (logD), shake-flask method; assay type: physicochemical; conditions: PBS pH 7.4
# Method: as §1
# It was diluted in PBS pH 7.4 (∼500 kBq, 25 µL, 0.01 nmol) and added to polypropylene tubes containing 1475 µL PBS and 1500 µL n-octanol followed by vigorous vortexing for 1 min. Phase separation was obtained by centrifugation at 1200 rcf for 6 min. The distribution coefficients were calculated as the logarithm of the ratio of counts per minute (cpm) measured in the n-octanol phase relative to the cpm measured in the PBS pH 7.4 phase using a γ-counter (Perkin Elmer, Wallac Wizard 1480). At least three experiments were performed in quintuplicate.
compound,measurement,setting,value
O=C([O-])CN1CCN(CC(=O)[O-])CCN(CC(=O)NCC2CCC(C(=O)NC(Cc3ccc4ccccc4c3)C(=O)NCCCCC(NC(=O)NC(CCC(=O)O)C(=O)O)C(=O)O)CC2)CCN(CC(=O)[O-])CC1.[161Tb+3] (centres unmarked) [^161Tb-PSMA-617],Effect on survival of PC-3 flu cells compared to ^177Lu-PSMA-617,[1],tendency of a more pronounced effect
same,Uptake in the PSMA-negative PC-3 flu tumor (SPECT/CT),"[2]; 1 h, 4 h and 24 h p.i.",negligible uptake
same,Renal excretion of activity (SPECT/CT),[2]; after 4 h,almost entirely excreted
same,First mouse euthanized,[3]; 2.5 MBq,26 days
same,TGDI2,[3]; 2.5 MBq,1.0 ± 0.4
same,TGDI5,[3]; 2.5 MBq,1.2 ± 0.3
same,Median Survival,[3]; 2.5 MBq,31 days
same,Last mouse euthanized,"[3]; 2.5 MBq, study end Day 38",study end
same,First mouse euthanized,[3]; 5.0 MBq,30 days
same,TGDI2,[3]; 5.0 MBq,1.6 ± 0.4
same,Median Survival,[3]; 5.0 MBq,34 days
same,Last mouse euthanized,"[3]; 5.0 MBq, study end Day 38",study end
same,Survival,[3]; 10 MBq,survived until the end of the study at Day 38
same,Cases in which tumors started to grow,"[3]; 10 MBq, from Day 25 and Day 35 on",2 of 8
same,First mouse euthanized,"[3]; 10 MBq, study end Day 38",study end
same,Last mouse euthanized,"[3]; 10 MBq, study end Day 38",study end
same,Reduction of tumor-cell viability compared to ^177Lu-PSMA-617,"PC-3 PIP tumor cells; 0.1–10 MBq/mL, p < 0.05",significantly more effective
same,Effectiveness in vitro relative to ^177Lu-PSMA-617,PC-3 PIP tumor cells; viability and survival of PC-3 PIP tumor cells,up to 3 fold
same,PC-3 PIP tumor cell uptake,[4]; 2–4 h incubation,47–54%
same,Uptake in PC-3 PIP tumor cells,[4]; 2 h incubation,47%
same,Uptake in PC-3 PIP tumor cells,[4]; 4 h incubation,54%
same,Internalized fraction,[4]; 2–4 h incubation,8–11%
same,Internalized fraction,[4]; 2 h,8%
same,Internalized fraction,[4]; 4 h,11%
same,Uptake in PC-3 flu tumor cells,[5],< 0.5%
same,Stability (intact radioligand),"[6]; 50 MBq/nmol, 250 MBq/500 μL, at least 1 h, without L-ascorbic acid",> 98%
same,Stability when incubated for longer time periods,"[6]; 250 MBq/500 μL, longer than 1 h, without L-ascorbic acid",radiolytic degradation
same,Stability (intact radioligand),"[6]; in the presence of L-ascorbic acid, up to 24 h",≥ 98%
same,n-octanol/PBS distribution coefficient (logD value),[7],−3.9 ± 0.1
